Data reported in ChEMBL document CHEMBL3217684, “Synthesis and cytotoxicity evaluation of regioisomeric substituted N-phenyl-3-(chrom-4-one-3-yl)-isoxazolidines: induction of apoptosis through a mitochondrial-dependent pathway” (Medchemcomm, 2013).
The source made the active and inactive calls. The rule behind the calls is not given here.

Legend:
[1] = test system: Caco-2; test: Cytotoxicity against human Caco2 cells assessed as inhibition of cell proliferation after 48 hrs by sulforhodamine-B assay; format: functional, cell-based; conditions: Caco-2, 48 h
[2] = test system: A549; test: Cytotoxicity against human A549 cells assessed as inhibition of cell proliferation after 48 hrs by sulforhodamine-B assay; format: functional, cell-based; conditions: A549, 48 h
[3] = test system: PC-3; test: Cytotoxicity against human PC3 cells assessed as inhibition of cell proliferation after 48 hrs by sulforhodamine-B assay; format: functional, cell-based; conditions: PC-3, 48 h
[4] = test system: THP-1; test: Cytotoxicity against human THP1 cells assessed as inhibition of cell proliferation after 48 hrs by sulforhodamine-B assay; format: functional, cell-based; conditions: THP-1, 48 h
[5] = test system: HL-60; test: Induction of apoptosis in human HL60 cells assessed as loss of mitochondrial membrane potential at 1 uM after 24 hrs by Rhodamine 123 staining based flow cytometry (reference value: 7%); format: functional
[6] = test system: HL-60; test: Induction of apoptosis in human HL60 cells assessed as accumulation of DNA at sub-G0 phase at 1 uM after 24 hrs by propidium iodide staining based flow cytometry (Rvb= 4.2%); format: functional
[7] = test system: HL-60; test: Induction of apoptosis in human HL60 cells assessed as intact mitochondrial membrane potential at 1 uM after 24 hrs by Rhodamine 123 staining based flow cytometry (reference value: 93.6%); format: functional
[8] = test system: HL-60; test: Induction of apoptosis in human HL60 cells assessed as accumulation of DNA at sub-G0 phase at 30 uM after 24 hrs by propidium iodide staining based flow cytometry (Rvb= 4.2%); format: functional
[9] = test system: HL-60; test: Induction of apoptosis in human HL60 cells assessed as loss of mitochondrial membrane potential at 30 uM after 24 hrs by Rhodamine 123 staining based flow cytometry (reference value: 7%); format: functional
[10] = test system: HL-60; test: Induction of apoptosis in human HL60 cells assessed as mitochondrial damage and loss of mitochondrial membrane potential after 24 hrs by Rhodamine 123 staining based flow cytometry; format: functional, cell-based
[11] = test system: HL-60; test: Induction of apoptosis in human HL60 cells assessed as accumulation of DNA at sub-G0 phase at 50 uM after 24 hrs by propidium iodide staining based flow cytometry (Rvb= 4.2%); format: functional
[12] = test system: HL-60; test: Induction of apoptosis in human HL60 cells assessed as accumulation of DNA at sub-G0 phase at 10 uM after 24 hrs by propidium iodide staining based flow cytometry (Rvb= 4.2%); format: functional
[13] = test system: HL-60; test: Induction of apoptosis in human HL60 cells assessed as DNA fragmentation at 50 uM after 24 hrs by agarose gel electrophoresis analysis; format: functional, cell-based
[14] = test system: HL-60; test: Induction of apoptosis in human HL60 cells assessed as condensation and fragmentation of nuclei at 50 to 100 uM after 24 hrs by DAPI staining based fluorescence microscopic analysis; format: functional, cell-based
[15] = test system: HL-60; test: Induction of apoptosis in human HL60 cells assessed as loss of mitochondrial membrane potential at 50 uM after 24 hrs by Rhodamine 123 staining based flow cytometry (reference value: 7%); format: functional
[16] = test system: HL-60; test: Induction of apoptosis in human HL60 cells assessed as accumulation of DNA at sub-G0 phase at 100 uM after 24 hrs by propidium iodide staining based flow cytometry (Rvb= 4.2%); format: functional
[17] = test system: HL-60; test: Induction of apoptosis in human HL60 cells assessed as intact mitochondrial membrane potential at 50 uM after 24 hrs by Rhodamine 123 staining based flow cytometry (reference value: 93.6%); format: functional
[18] = test system: HL-60; test: Induction of apoptosis in human HL60 cells assessed as intact mitochondrial membrane potential at 10 uM after 24 hrs by Rhodamine 123 staining based flow cytometry (reference value: 93.6%); format: functional
[19] = test system: HL-60; test: Induction of apoptosis in human HL60 cells assessed as intact mitochondrial membrane potential at 30 uM after 24 hrs by Rhodamine 123 staining based flow cytometry (reference value: 93.6%); format: functional
[20] = test system: HL-60; test: Induction of apoptosis in human HL60 cells assessed as loss of mitochondrial membrane potential at 10 uM after 24 hrs by Rhodamine 123 staining based flow cytometry (reference value: 7%); format: functional

| Compound | IC50 [1] [µM] | IC50 [2] [µM] | IC50 [3] [µM] | IC50 [4] [µM] | further results |
| --- | --- | --- | --- | --- | --- |
| O=c1c([C@@H]2C[C@H](c3ccccc3)ON2c2ccccc2)coc2cc(Cl)c(Cl)cc12 (relative stereo) | 23.5 | 43 | 32 | 38 |  |
| O=c1c([C@@H]2C[C@H](c3ccncc3)ON2c2ccccc2)coc2ccccc12 (relative stereo) | 37 | 19.3 | 46 | 16.4 |  |
| CCO[C@H]1C[C@@H](c2coc3ccccc3c2=O)N(c2ccccc2)O1 (relative stereo) | > 60 | > 60 | > 60 | > 60 |  |
| Cc1ccc2occ([C@@H]3[C@H]4C(=O)N(c5ccccc5)C(=O)[C@H]4ON3c3ccccc3)c(=O)c2c1 | > 60 | > 60 | 11.1 | > 60 |  |
| O=c1c([C@@H]2C[C@H](c3ccccc3)ON2c2ccccc2)coc2ccccc12 (relative stereo) | > 60 | > 60 | > 60 | > 60 |  |
| CO[C@@]12[C@H](COC(N)=O)C3=C(C(=O)C(C)=C(N)C3=O)N1C[C@@H]1N[C@@H]12 [MITOMYCIN] |  | 0.4 |  |  |  |
| COC(=O)[C@H]1C[C@@H](c2coc3ccccc3c2=O)N(c2ccccc2)O1 (relative stereo) | > 60 | > 60 | > 60 | > 60 |  |
| CCO[C@H]1C[C@@H](c2coc3ccc(C)cc3c2=O)N(c2ccccc2)O1 (relative stereo) | 31 | 20.7 | 39 | 41 |  |
| Cc1ccc2occ([C@@H]3C[C@H](c4ccccc4)ON3c3ccccc3)c(=O)c2c1 (relative stereo) | 31.7 | 49 | > 60 | > 60 |  |
| CCO[C@H]1C[C@@H](c2coc3cc(Cl)c(Cl)cc3c2=O)N(c2ccccc2)O1 (relative stereo) | > 60 | 19.8 | > 60 | 16.5 |  |
| CCO[C@H]1C[C@@H](c2coc3ccc(F)cc3c2=O)N(c2ccccc2)O1 (relative stereo) | > 60 | 26.4 | 31.7 | > 60 |  |
| O=c1c([C@@H]2C[C@H](c3ccccc3)ON2c2ccccc2)coc2ccc(F)cc12 (relative stereo) | 60 | 51.5 | 49 | 54.7 |  |
| O=c1c([C@@H]2C[C@H](c3ccccc3)ON2c2ccccc2)coc2ccc(Br)cc12 (relative stereo) | > 60 | 51 | 60 | 60 |  |
| CCO[C@H]1C[C@@H](c2coc3ccc(Br)cc3c2=O)N(c2ccccc2)O1 (relative stereo) | > 60 | 21.5 | > 60 | > 60 |  |
| COC(=O)[C@@]1(C)C[C@@H](c2coc3ccc(F)cc3c2=O)N(c2ccccc2)O1 (relative stereo) | 29.5 | 20.3 | 31.3 | 47 |  |
| CC[C@@]1(O)C(=O)OCc2c1cc1n(c2=O)Cc2cc3ccccc3nc2-1 [CAMPTOTHECIN] |  |  |  |  | Activity [5]: 53.3%; Activity [6]: 61.8%; Activity [7]: 46.1% |
| COC(=O)[C@@]1(C)C[C@@H](c2coc3ccc(Br)cc3c2=O)N(c2ccccc2)O1 (relative stereo) | > 60 | 9.9 | > 60 | 14.7 |  |
| Cc1ccc2occ([C@@H]3C[C@H](OCC(C)C)ON3c3ccccc3)c(=O)c2c1 (relative stereo) | > 60 | 17.1 | 37.7 | 21.5 |  |
| O=C1[C@H]2[C@H](ON(c3ccccc3)[C@@H]2c2coc3ccc(F)cc3c2=O)C(=O)N1c1ccccc1 (relative stereo) | > 60 | 13.5 | > 60 | 43.5 |  |
| N#C[C@H]1C[C@@H](c2coc3ccc(Cl)cc3c2=O)N(c2ccccc2)O1 (relative stereo) | 39 | 40 | 41 | 35 |  |
| NC(=O)[C@H]1C[C@@H](c2coc3ccccc3c2=O)N(c2ccccc2)O1 (relative stereo) | > 60 | > 60 | > 60 | > 60 |  |
| COC(=O)[C@H]1C[C@@H](c2coc3ccc(Cl)cc3c2=O)N(c2ccccc2)O1 (relative stereo) | > 60 | > 60 | > 60 | > 60 |  |
| O=C1[C@H]2[C@H](ON(c3ccccc3)[C@@H]2c2coc3ccc(Br)cc3c2=O)C(=O)N1c1ccccc1 (relative stereo) | 20.3 | 17 | 13.3 | 22.3 |  |
| COC(=O)[C@@]1(C)C[C@@H](c2coc3ccc(C)cc3c2=O)N(c2ccccc2)O1 (relative stereo) | 19.7 | 0.7 | > 60 | 7.3 | Activity [8]: 41.6%; Activity [9]: 36.6%; Activity [10]: Dose-dependent effect; Activity [11]: 44.6%; Activity [12]: 4.9%; Activity [13]: Active; Activity [14]: Active; Activity [15]: 53.9%; Activity [16]: 50.2%; Activity [17]: 45.7%; Activity [18]: 92%; Activity [19]: 62.9%; Activity [20]: 7.9% |
